The numbers were not newly measured in PMC5618191 (Toxins, 2017), which cites them from elsewhere.

Details of this data set: method as in PMID 26892719. The following applies: after three days of treatment; cited from earlier work.

SMILES strings stand for the structures.

Turning to `CC(C)[C@H]1C(=O)O[C@H](C(C)C)C(=O)N(C)[C@@H](C(C)C)C(=O)O[C@H](C(C)C)C(=O)N(C)[C@@H](C(C)C)C(=O)O[C@H](C(C)C)C(=O)N1C` [ENN B, enniatin B], the Metabolites in mice entry is “three phase I metabolites”.
